Where two headings read alike, the source gives them in different places.
Experiments:
Boophilus microplus = Boophilus microplus test (BOOPMI injection); format: in vivo; conditions: application rate 20 μg/animal; injected into the abdomen; after 7 days
Experimental: Boophilus microplus Test (BOOPMI Injection) Solvent: dimethyl sulphoxide To prepare an appropriate active ingredient formulation, 10 mg of active ingredient are mixed with 0.5 ml of solvent and the concentrate is diluted with solvent to the desired concentration. The active ingredient solution is injected into the abdomen (Boophilus microplus), and the animals are transferred into dishes and stored in a climate-controlled room. After 7 days, the efficacy in % is determined. The activity is assessed by laying of fertile eggs. 100% means that none of the ticks has laid any fertile eggs.

Phaedon cochleariae = test: Phaedon test (PHAECO spray treatment); format: in vivo; conditions: application rate 100 g/ha, Chinese cabbage leaf discs, after 7 days; for pest or weed control at 100 g/ha: Phaedon cochleariae, foliar, 168 h, read-out: efficacy in %
Experimental: Phaedon Test ([…] Spray Treatment) Solvent: 78.0 parts by weight of acetone • • 1.5 parts by weight of dimethylformamide Emulsifier: 0.5 part by weight of alkylaryl polyglycol ether To produce an appropriate active ingredient formulation, 1 part by weight of active ingredient is mixed with the stated amounts of solvent and emulsifier, and the concentrate is diluted with emulsifier-containing water to the desired concentration. Leaf discs of Chinese cabbage (Brassica pekinensis) are sprayed with an active ingredient formulation of the desired concentration and, after drying, populated with larvae of the mustard beetle (Phaedon cochleariae). After 7 days, the efficacy in % is determined. 100% means that all of the beetle larvae have been killed; 0% means that none of the beetle larvae have been killed.

Tetranychus urticae = test: Tetranychus test, OP-resistant (TETRUR spray treatment); format: in vivo; conditions: bean leaf discs, after 6 days
Experimental: Tetranychus Test, OP-Resistant (TETRUR Spray Treatment)
Solvent: 78.0 parts by weight of acetone • • 1.5 parts by weight of dimethylformamide
Emulgator: 0.5 part by weight of alkylaryl polyglycol ether
To produce an appropriate active ingredient formulation, 1 part by weight of active ingredient is mixed with the stated amounts of solvent and emulsifier, and the concentrate is diluted with emulsifier-containing water to the desired concentration.
Discs of bean leaves (Phaseolus vulgaris) infested by all stages of the red spider mite (Tetranychus urticae) are sprayed with an active ingredient formulation of the desired concentration.
After 6 days, the efficacy in % is determined. 100% means that all of the spider mites have been killed; 0% means that none of the spider mites have been killed.

Spodoptera frugiperda = Spodoptera frugiperda test (SPODFR spray treatment); format: in vivo; conditions: application rate 100 g/ha; maize leaf discs; after 7 days
Experimental: Spodoptera frugiperda Test (SPODFR Spray Treatment) Solvent: 78.0 parts by weight of acetone • • 1.5 parts by weight of dimethylformamide To produce an appropriate active ingredient formulation, 1 part by weight of active ingredient is mixed with the stated amounts of solvent and emulsifier, and the concentrate is diluted with emulsifier-containing water to the desired concentration. Leaf discs of maize (Zea mays) are sprayed with an active ingredient formulation of the desired concentration and, after drying, populated with caterpillars of the armyworm (Spodoptera frugiperda). After 7 days, the efficacy in % is determined 100% means that all of the caterpillars have been killed; 0% means that none of the caterpillars have been killed.

Lucilia cuprina larvae = test: Lucilia cuprina test (LUCICU); format: in vivo; conditions: application rate 100 ppm; treated horse meat; after 2 days
Experimental: (§1) Lucilia cuprina Test (LUCICU) Solvent: dimethyl sulphoxide To prepare an appropriate active ingredient formulation, 10 mg of active ingredient are mixed with 0.5 ml of dimethyl sulphoxide and the concentrate is diluted with water to the desired concentration. Vessels containing horse meat treated with the active ingredient formulation of the desired concentration are populated with about 20 Lucilia cuprina larvae. After 2 days, the kill in % is determined. 100% means that all of the larvae have been killed; 0% means that none of the larvae have been killed.

Ctenocephalides felis = Ctenocephalides felis oral (CTECFE); format: in vivo; conditions: application rate 100 ppm in citrated cattle blood; after 2 days
Experimental: Ctenocephalides felis Oral ([…]) Solvent: 1 part by weight of dimethyl sulphoxide For the purpose of preparing an appropriate active ingredient formulation, 10 mg of active ingredient are mixed with 0.5 ml of dimethyl sulphoxide. A portion of the concentrate is diluted with citrated cattle blood, and the desired concentration is prepared. About 20 unfed adult fleas (Ctenocephalides felis) are placed into a chamber which is closed at the top and bottom with gauze. A metal cylinder whose bottom end is closed with Parafilm is placed onto the chamber. The cylinder contains the blood/active ingredient formulation, which can be imbibed by the fleas through the Parafilm membrane. After 2 days, the kill in % is determined 100% means that all of the fleas have been killed; 0% means that none of the fleas have been killed.

logP (HPLC-MS) = format: physicochemical
adult Musca domestica = test: Musca domestica test (MUSCDO); format: in vivo; conditions: application rate 100 ppm; treated sponge; after 2 days
Experimental: as §1, with “Musca domestica” for “Lucilia cuprina”, “(MUSCDO)” for “(LUCICU)”, “a sponge” for “horse meat”, “adult Musca domestica.” for “about 20 Lucilia cuprina larvae.”, “determined” for “determined.”, “flies” for “larvae”

[1] = HPLC, reversed-phase column (C18), acidic range pH 2.7, acetonitrile (0.1% formic acid)/water gradient, 43° C., calibration with unbranched alkan-2-ones
[2] = HPLC, reversed-phase column (C18), 43° C., acidic range pH 2.7, EEC directive 79/831 Annex V.A8, two values = both regioisomers (G = N)

Row | Compound | log p (logP (HPLC-MS); [1]) | chromatographic logP (logP (HPLC-MS); HPLC, reversed-phase column (C18), acidic range pH 2.7, acetonitrile (0.1% formic acid)/water gradient, 43° C., calibration with unbranched alkan-2-ones, read-out: log p) | chromatographic logP (logP (HPLC-MS); HPLC-MS) | log p (logP (HPLC-MS); [2]) | chromatographic logP (logP (HPLC-MS); HPLC, reversed-phase column (C18), 43° C., acidic range pH 2.7, EEC directive 79/831 Annex V.A8, two values = both regioisomers (G = N), read-out: log p) | efficacy (laying of fertile eggs) (Boophilus microplus) | efficacy in % (Phaedon cochleariae) | efficacy in % (Tetranychus urticae; application rate 100 g/ha) | efficacy in % (Spodoptera frugiperda) | efficacy (kill in %) (Lucilia cuprina larvae) | efficacy (kill in %) (Ctenocephalides felis) | efficacy in % (Tetranychus urticae; application rate 500 g/ha) | pest or weed control at 100 g/ha (Phaedon cochleariae) | efficacy (kill in %) (adult Musca domestica)
1 | CCn1c(C(=O)NC(c2cccc(Cl)c2)C(F)(F)F)cc2cc(C(=O)NC3(C#N)CC3)c(Cl)cc21 (stereo not drawn) [Compound 39] | 3.67 |  |  |  |  | 100% | 100% | 100% | 100% | 100% | 100% |  |  | 
2 | CCn1c(C(=O)NC(c2cccc(Cl)c2)C(F)(F)F)cc2cc(C(=O)NC3CC3)c(Cl)cc21 (stereo not drawn) [Compound 2] | 3.65 |  |  |  |  | 100% | 100% |  | 100% | 100% | 95% | 100% |  | 
3 | Cn1c(C(=O)NC(c2cccc(Br)c2)C(F)(F)F)cc2cc(C(=O)NC3(C#N)CC3)c(Cl)cc21 (stereo not drawn) [Compound 48] | 3.39 |  |  |  |  | 100% | 100% | 100% | 100% | 100% | 100% |  |  | 
4 | CCn1c(C(=O)NC(c2cccc(Br)c2)C(F)(F)F)cc2cc(C(=O)NC3(C#N)CC3)c(Cl)cc21 (stereo not drawn) [Compound 41] | 3.75 |  |  |  |  | 100% |  | 100% | 100% | 100% | 100% |  |  | 
5 | CCn1c(C(=O)NC(c2ccc(F)c(C(F)(F)F)c2)C(F)(F)F)cc2cc(C(=O)NCC(F)F)c(Cl)cc21 (stereo not drawn) [Compound 19, 6-chloro-N^5-(2,2-difluoroethyl)-1-ethyl-N^2-{2,2,2-trifluoro-1-[4-fluoro-3-(trifluoromethyl)phenyl]ethyl}-1H-indole-2,5-dicarboxamide] |  | 4.03 | 5.16 |  |  | 100% |  |  |  | 100% | 100% |  | 100% | 100%
6 | N#CC1(NC(=O)c2cc3cc(C(=O)NC(c4cccc(C(F)(F)F)c4)C(F)(F)F)n(Cc4ccccc4)c3cc2Cl)CC1 (stereo not drawn) [Compound 284] |  |  |  | 4.07 |  |  | 100% | 100% | 100% |  |  |  |  | 
7 | CCn1c(C(=O)NC(c2ccc(F)c(C(F)(F)F)c2)C(F)(F)F)cc2cc(C(=O)NC3CCC3)c(C)cc21 (stereo not drawn) [Compound 304] |  |  |  | 4.24 |  |  | 100% |  | 100% |  |  | 100% |  | 
8 | C#CCn1c(C(=O)NC(c2cc(Cl)cc(Cl)c2)C(F)(F)F)cc2cc(C(=O)NC3(C#N)CC3)c(Cl)cc21 (stereo not drawn) [Compound 66] | 3.87 |  |  |  |  |  | 100% | 100% | 100% |  |  |  |  | 
9 | N#CC1(NC(=O)c2cc3cc(C(=O)NC(c4cccc(C(F)(F)F)c4)C(F)(F)F)n(C4CC4)c3cc2Cl)CC1 (stereo not drawn) [Compound 302, 6-chloro-N^5-(1-cyanocyclopropyl)-1-cyclopropyl-N^2-{2,2,2-trifluoro-1-[3-(trifluoromethyl)phenyl]ethyl}-1H-indole-2,5-dicarboxamide] |  |  | 3.59 |  | 3.6 |  |  | 100% | 100% |  |  |  | 100% | 
10 | CCn1c(C(=O)NC(c2ccc3c(c2)OC(F)(F)O3)C(F)(F)F)cc2cc(C(=O)NC3(C#N)CC3)c(C)cc21 (stereo not drawn) [Compound 308] |  |  |  | 3.80 |  |  | 100% | 90% | 100% |  |  |  |  | 
11 | CCn1c(C(=O)NC(c2ccc(F)c(F)c2)C(F)(F)F)cc2cc(C(=O)NC3(C#N)CC3)c(C)cc21 (stereo not drawn) [Compound 292] |  |  |  | 3.48 |  |  | 100% | 100% | 100% |  |  |  |  | 
12 | CCn1c(C(=O)NC(c2ccc(Cl)c(Cl)c2)C(F)(F)F)cc2cc(C(=O)NC3CC3)c(C)cc21 (stereo not drawn) [Compound 297] |  |  |  | 3.99 |  |  | 100% | 100% | 100% |  |  |  |  | 
13 | C#CCn1c(C(=O)NC(c2cccc(Cl)c2)C(F)(F)F)cc2cc(C(=O)NC3(C#N)CC3)c(Cl)cc21 (stereo not drawn) [Compound 58] | 3.42 |  |  |  |  |  | 100% | 100% | 100% |  |  |  |  | 

Continued, in another order:

Row | log p (logP (HPLC-MS); [1]) | chromatographic logP (logP (HPLC-MS); HPLC, reversed-phase column (C18), acidic range pH 2.7, acetonitrile (0.1% formic acid)/water gradient, 43° C., calibration with unbranched alkan-2-ones, read-out: log p) | chromatographic logP (logP (HPLC-MS); HPLC-MS) | log p (logP (HPLC-MS); [2]) | chromatographic logP (logP (HPLC-MS); HPLC, reversed-phase column (C18), 43° C., acidic range pH 2.7, EEC directive 79/831 Annex V.A8, two values = both regioisomers (G = N), read-out: log p) | Compound | efficacy (laying of fertile eggs) (Boophilus microplus) | efficacy in % (Phaedon cochleariae) | efficacy in % (Tetranychus urticae; application rate 100 g/ha) | efficacy in % (Spodoptera frugiperda) | efficacy (kill in %) (Lucilia cuprina larvae) | efficacy (kill in %) (Ctenocephalides felis) | efficacy in % (Tetranychus urticae; application rate 500 g/ha) | pest or weed control at 100 g/ha (Phaedon cochleariae) | efficacy (kill in %) (adult Musca domestica)
14 | 3.86 |  |  |  |  | CCn1c(C(=O)NC(c2cccc(C(F)(F)F)c2)C(F)(F)F)cc2cc(C(=O)NC3(C(=O)OC)CC3)c(Cl)cc21 (stereo not drawn) [Compound 28] | 100% | 100% |  | 83% | 100% | 95% | 100% |  | 
15 | 3.88 |  |  |  |  | CCn1c(C(=O)NC(c2cccc(C(F)(F)F)c2)C(F)(F)F)cc2cc(C(=O)NC(C)CF)c(Cl)cc21 (stereo not drawn) [Compound 8] | 100% | 100% |  | 100% | 100% | 95% |  |  | 
16 | 4.09 |  |  |  |  | CCn1c(C(=O)NC(c2cccc(C(F)(F)F)c2)C(F)(F)F)cc2cc(C(=O)NC3(C#N)CCC3)c(Cl)cc21 (stereo not drawn) [Compound 36] | 100% | 100% | 100% | 100% | 95% | 100% |  |  | 
17 | 3.86 |  |  |  |  | CCn1c(C(=O)NC(c2cccc(C(F)(F)F)c2)C(F)(F)F)cc2cc(C(=O)NC(CF)CF)c(Cl)cc21 (stereo not drawn) [Compound 11] | 100% | 100% |  |  | 100% | 80% |  |  | 
18 | 3.86 |  |  |  |  | C#CC1(NC(=O)c2cc3cc(C(=O)NC(c4cccc(C(F)(F)F)c4)C(F)(F)F)n(CC)c3cc2Cl)CC1 (stereo not drawn) [Compound 32] | 100% | 100% | 100% |  | 100% | 100% |  |  | 
19 | 3.53 |  |  |  |  | CCn1c(C(=O)NC(c2cccc(C(F)(F)F)c2)C(F)(F)F)cc2cc(C(=O)NCCC#N)c(Cl)cc21 (stereo not drawn) [Compound 263] |  | 100% | 100% | 100% |  |  |  |  | 

Reference: US9107411B2, “Indolecarboxamides and benzimidazolecarboxamides as insecticides and acaricides” (BAYER INTELLECTUAL PROPERTY GMBH, priority 2011, dated 2015)
